Experimental data as given in PubChem BioAssay (NCI).
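How tested: cells in 96-well plates exposed to compound for 48 hours at five concentrations. TGI: total growth inhibition.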

How the values were obtained:
Assay in all cases: growth of human tumour cells (NCI), 48 h
[1] = system: OVCAR-8 ovarian
[2] = system: UACC-62 melanoma
[3] = system: OVCAR-5 ovarian
[4] = system: RPMI-8226 leukemia
[5] = system: NCI-H23 lung
[6] = system: MALME-3M melanoma
[7] = system: RXF 393 renal
[8] = system: EKVX NSCLC
[9] = system: NCI-H226 lung
[10] = system: IGROV1 ovarian
[11] = system: OVCAR-4 ovarian
[12] = system: MOLT-4 leukemia
[13] = system: DLD-1 colon
[14] = system: SK-MEL-2 melanoma
[15] = system: HOP-92 NSCLC
[16] = system: SK-MEL-28 melanoma
[17] = system: SK-OV-3 ovarian
[18] = system: U251 CNS
[19] = system: DMS 273 small cell lung
[20] = system: SF-539 CNS
[21] = system: HCC-2998 colon
[22] = system: HOP-62 NSCLC
[23] = system: SW-620 colon
[24] = system: K-562 leukemia
[25] = system: SNB-19 CNS
[26] = system: A549 NSCLC
[27] = system: LOX IMVI melanoma
[28] = system: HCT-116 colon
[29] = system: KM20L2 colon
[30] = system: DMS 114 small cell lung
[31] = system: SF-295 CNS
[32] = system: CCRF-CEM leukemia
[33] = system: M19-MEL melanoma
[34] = system: HOP-18 NSCLC
[35] = system: SF-268 CNS
[36] = system: SN12C renal
[37] = system: KM12 colon
[38] = system: LXFL 529 NSCLC
[39] = system: NCI-H522 lung
[40] = system: SR leukemia
[41] = system: COLO 205 colon
[42] = system: RXF-631 renal
[43] = system: HCT-15 colon
[44] = system: ACHN renal
[45] = system: TK-10 renal
[46] = system: SNB-78 CNS
[47] = system: UO-31 renal
[48] = system: CAKI-1 renal
[49] = system: OVCAR-3 ovarian
[50] = system: SK-MEL-5 melanoma
[51] = system: M14 melanoma
[52] = system: SNB-75 CNS
[53] = system: NCI-H460 lung
[54] = system: 786-0 renal
[55] = system: HL-60(TB) leukemia

Measured: TGI

CCOC(=O)c1ccc(N2C(=O)/C(=C/c3ccc(N(CCC#N)CCC#N)cc3)N=C2c2cc([N+](=O)[O-])ccc2Cl)cc1
not listed: [51] | [52] | [53] | [54] | [55]
> 100 µM: all other assays above

CCCN(CCC)C1CC(n2cc(C)c(=O)[nH]c2=O)OC1CO (stereo not drawn)
not listed: [1] | [3] | [7] | [8] | [18] | [23] | [25] | [26] | [27] | [29] | [31] | [34] | [37] | [43] | [45] | [49] | [50]
> 100 µM: all other assays above
